Laboratory results taken from patent publication US8399430B2, “Alkylated semi synthetic glycosaminoglycosan ethers, and methods for making and using thereof” (University of Utah Research Foundation, priority 2008, dated 2013).
“Also recorded” adds a separate entry of the source.

Legend:
P-Selectin/PSGL = target: T1, P-Selectin/PSGL (Homo sapiens, UniProt P16109); test: U937 monocyte binding to P-selectin (cell binding assay); details: Table 2; U937 binding to P-selectin-Fc
T1 construct: purchased R&D Systems (Minneapolis, Minn.)
T1 sequence (P16109 with tags, fused parts or gaps limits assumed): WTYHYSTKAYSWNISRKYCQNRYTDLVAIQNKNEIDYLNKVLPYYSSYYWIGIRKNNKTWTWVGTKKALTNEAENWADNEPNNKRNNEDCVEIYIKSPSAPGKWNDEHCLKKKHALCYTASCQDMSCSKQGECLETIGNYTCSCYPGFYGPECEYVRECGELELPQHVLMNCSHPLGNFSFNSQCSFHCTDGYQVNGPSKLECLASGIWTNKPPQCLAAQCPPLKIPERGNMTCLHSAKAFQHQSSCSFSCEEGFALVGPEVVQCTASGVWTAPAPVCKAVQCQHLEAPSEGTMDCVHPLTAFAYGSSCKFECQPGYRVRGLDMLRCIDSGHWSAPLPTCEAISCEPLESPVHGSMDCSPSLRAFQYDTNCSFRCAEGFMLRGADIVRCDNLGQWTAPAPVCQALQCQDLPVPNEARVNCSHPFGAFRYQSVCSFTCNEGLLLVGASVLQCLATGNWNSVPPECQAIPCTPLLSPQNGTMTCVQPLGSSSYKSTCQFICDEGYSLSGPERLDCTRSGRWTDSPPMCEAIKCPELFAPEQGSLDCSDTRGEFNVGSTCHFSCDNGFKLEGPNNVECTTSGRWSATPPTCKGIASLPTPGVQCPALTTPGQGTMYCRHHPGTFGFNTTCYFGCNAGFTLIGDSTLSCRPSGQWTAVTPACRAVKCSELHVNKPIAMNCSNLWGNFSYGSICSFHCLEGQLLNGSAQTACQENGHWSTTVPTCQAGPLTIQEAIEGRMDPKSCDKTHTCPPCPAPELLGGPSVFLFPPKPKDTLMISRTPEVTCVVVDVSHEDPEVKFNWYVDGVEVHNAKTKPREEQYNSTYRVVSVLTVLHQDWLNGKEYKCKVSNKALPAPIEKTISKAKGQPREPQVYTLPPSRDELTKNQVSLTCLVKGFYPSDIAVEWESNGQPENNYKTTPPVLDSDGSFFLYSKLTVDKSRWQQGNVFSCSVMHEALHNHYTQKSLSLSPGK
Experimental: (§1) Cell Binding Assays. The effect of SAGEs on binding of U937 monocytes to P-selectin or RAGE was studied in high-bind micro plates coated with 8 μg/ml protein A ([…]) in 0.2 M carbonate-bicarbonate buffer (pH 9.4). Plates were washed with phosphate buffered saline containing 1% BSA (PBS-BSA), and P-selectin-Fc or RAGE-Fc chimera (50 μL containing 1 μg) was added to each well and incubated for 2 h at room temperature or overnight at 4° C., respectively. Following incubation, wells were washed twice with PBS-BSA. […] As a negative control, 50 μL of 10 mM EDTA was added to select wells to prevent cell binding through sequestration of calcium. At the end of the incubation period, 50 μL of U937 cells (10^5 cells/well, calcein-labeled according to manufacturer's instructions) were added to each well and plates were incubated an additional 30 min at room temperature. The wells were then washed thrice with PBS, and bound cells were lysed by addition of 100 μL of Tris-TritonX-100 containing buffer. Fluorescence was measured on a microplate reader using excitation of 494 nm and emission of 517 nm.

RAGE/Mac-1 = target: T2, RAGE/Mac-1 (Homo sapiens, UniProt Q15109); test: U937 monocyte binding to RAGE (cell binding assay); details: Table 2; U937 binding to RAGE-Fc
T2 construct: purchased R&D Systems (Minneapolis, Minn.)
T2 sequence (Q15109 with tags, fused parts or gaps limits assumed): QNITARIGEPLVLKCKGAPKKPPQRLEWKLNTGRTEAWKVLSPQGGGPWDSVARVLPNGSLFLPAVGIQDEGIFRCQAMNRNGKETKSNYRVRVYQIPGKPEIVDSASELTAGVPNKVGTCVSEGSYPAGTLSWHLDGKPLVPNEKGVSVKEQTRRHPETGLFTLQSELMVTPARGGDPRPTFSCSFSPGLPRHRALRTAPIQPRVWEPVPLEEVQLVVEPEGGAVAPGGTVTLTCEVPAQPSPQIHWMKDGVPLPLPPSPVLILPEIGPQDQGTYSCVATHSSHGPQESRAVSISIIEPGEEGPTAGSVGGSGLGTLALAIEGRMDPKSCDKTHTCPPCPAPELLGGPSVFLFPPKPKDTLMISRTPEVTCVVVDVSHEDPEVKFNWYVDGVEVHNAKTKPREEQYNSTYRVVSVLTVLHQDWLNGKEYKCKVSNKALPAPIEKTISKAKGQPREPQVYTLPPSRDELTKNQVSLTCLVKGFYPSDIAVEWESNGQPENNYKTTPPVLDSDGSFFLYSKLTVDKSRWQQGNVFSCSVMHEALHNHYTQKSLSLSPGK
Experimental: as §1

RAGE/CML-BSA = target: T3, RAGE/CML-BSA (Homo sapiens, UniProt Q15109); test: Solid phase binding assay, RAGE to CML-BSA; details: Table 2
T3 construct: purchased R&D Systems (Minneapolis, Minn.)
T3 sequence (Q15109 with tags, fused parts or gaps limits assumed): as above
Experimental: (§2) Solid phase binding assays. Solid phase binding assays were used to study the ability of SAGEs to inhibit RAGE binding to its ligands. For studies of the effect of SAGEs on RAGE binding to its ligands, polyvinyl 96-well plates were coated with 5 μg/well of specific ligand (CML-BSA, HMGB-I or S100b calgranulin). Plates were incubated overnight at 4° C. and washed thrice with PBS-0.05% Tween-20 (PBST). Separately, RAGE-Fc chimera (100 μL containing 0.5 μg/ml in PBST-0.1% BSA) was incubated with an equal volume of serially diluted SAGEs (0.001 to 1,000 μg/ml in PBST-BSA) overnight at 4° C. The following day, 50 μL of RAGE-SAGE mix was transferred to each respective ligand-coated well and incubated at 37° C. for 2 h. Wells were then washed four times with PBST. To detect bound RAGE, 50 μL of anti-RAGE antibody (0.5 μg/ml) was added to each well, the mixture was incubated for 1 h at room temperature, and wells were washed again four times with PBST. Horse-radish peroxidase conjugated secondary antibody (1:10,000 antibody dilution in PBST; 50 μL per well) was added, wells were incubated for 1 h at room temperature, and then washed once with PBST. A colorimetric reaction was initiated by addition of 50 μL of tetramethyl benzidine chromogen (TMB single solution chromogen) and terminated after 15 min by addition of 50 μL of 1 N HCl. Absorbance at 450 nm was read using an automated microplate reader.

RAGE/S100B = target: T4, RAGE/S100B (Homo sapiens, UniProt Q15109); test: Solid phase binding assay, RAGE to S100b calgranulin; details: Table 2
T4 construct: purchased R&D Systems (Minneapolis, Minn.)
T4 sequence (Q15109 with tags, fused parts or gaps limits assumed): as above
Experimental: as §2

RAGE/HMGB1 = target: T5, RAGE/HMGB1 (Homo sapiens, UniProt Q15109); test: Solid phase binding assay, RAGE to HMGB-1 (amphoterin); details: Table 2
T5 construct: purchased R&D Systems (Minneapolis, Minn.)
T5 sequence (Q15109 with tags, fused parts or gaps limits assumed): as above
Experimental: as §2

human leukocyte elastase = target: T6, human leukocyte elastase (Homo sapiens, UniProt P08246); test: Human leukocyte elastase activity assay, chromogenic substrate; assay type: biochemical; details: for Leukocyte Elastase: Table 2
T6 sequence (P08246 30-267): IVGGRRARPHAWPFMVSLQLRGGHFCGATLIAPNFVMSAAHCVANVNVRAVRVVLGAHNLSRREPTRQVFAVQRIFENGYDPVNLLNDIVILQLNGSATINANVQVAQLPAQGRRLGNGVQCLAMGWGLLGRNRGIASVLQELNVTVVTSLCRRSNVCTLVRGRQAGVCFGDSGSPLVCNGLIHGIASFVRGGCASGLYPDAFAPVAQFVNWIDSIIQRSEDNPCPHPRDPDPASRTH
Source text: Enzymatic assays. […] Nat Biotech 26:669-675, 2008).

ARPE-19 cells = test: AGE-induced apoptosis of ARPE-19 cells (Live/Dead stain); assay type: cell-based, human; details: AGE-BSA 25 μM, 40 h, test substance 200 μM
Experimental: The ability of AGE products to induce RPE cell apoptosis was investigated. ARPE-19 cells were grown to confluence on round coverslips, then transferred to new dishes for exposure to 25 μM AGE-BSA for 40 h. Apoptosis was then assayed with Molecular Probes Fixable Live/Dead Cell Stain Kit (LI 1101, Eugene, Oreg.). […] Nuclei are stained […] with DAPI; dead cells are stained green. A. BSA control. Some dead cells are noted at the edges of the coverslip, but live and dead cells are interspersed at the interface. B. AGE-BSA (25 μM). Significant cell death is seen around the edges, and the boundary between live and dead cells is stark. C. AGE-BSA (25 μM)+ODSH (200 μM). […] D. AGE-BSA (25 μM)+P-OSMeHA (200 μM) (GM-11 1101). […] Apoptosis appeared to advance inward from the edges of cells cultured on round cover slips. RAGE is prominently expressed in RPE cells where it may be selectively expressed on the basal membrane as in other human epithelial cells. […] In contrast, AGE in drusen, which accumulates between retinal pigment epithelium and Bruch's membrane, would have ready access to basally located RAGE, optimally positioning AGE/RAGE signaling to mediate the localized RPE apoptosis that constitutes so-called “geographic atrophy” in age-related macular degeneration. […]

RAGE = test: CML-BSA-induced RAGE expression in ARPE-19 cells (immunoblot); assay type: cell-based, human; details: cells grown on CML-BSA
Source text: Activated complement and RAGE induce angiogenic and pro-inflammatory signaling in cultured RPE cells. Experiments studying the biology of RAGE in cultured RPE cells using the ARPE-19 human RPE cell line were consucted. As shown in immunoblots (FIG. 17), ARPE-19 cells express at least 4 isoforms of RAGE ranging from 45-50 kDa in cell lysates, and secrete these isoforms into conditioned media. […] Because RAGE ligation activates the transcription factor NF-κB, enhanced expression of RAGE greatly promotes pro-inflammatory signaling. […] This would prevent “feed-forward” pro-inflammatory increases in RAGE expression itself by RAGE ligation.

LL-37 injected skin = test: SAGE topical treatment LL-37 rosacea model; assay type: in vivo, Balb/c mice; details: topical administration
Experimental: SAGE topical treatment rosacea model. Balb/c mice were shaved […] area of skin on the back. We then began topical application of a hyaluronan-cased emollient containing 5% SAGEs (active emollient) or hyaluronic acid based emollient alone to this area of skin every 12 hours. Twenty-four hours later, we injected 40 μL of vehicle (PBS) or cationic peptide (at 320 μM concentration) subcutaneously into the shaved skin in the manner described previously. Injections and topical emollient applications were repeated every 12 h thereafter. Forty-eight hours after the initial injection (four injections in total), animals were lightly anesthetized as described previously. […] The intensity of erythema was assessed as a redness score (from 1 to 5), and the area of erythema was measured with calipers. […]
Myeloperoxidase (MPO) assay. […] Tissue MPO activity was measured using a method by Suzuki et. al. (Suzuki K, Ota H, Sasagawa S, Sakatani T, Fujikura T. Assay method for myeloperoxidase in human polymorphonuclear leukocytes. Anal Biochem 132:345-352, 1983) as modified by Young et. al. (Young J M, Spires D A, Bedord C J, Wagner B, Ballaron S J, De oung L M. The mouse ear inflammatory response to typical arachidonic acid. J Invest Dermatol 82:367-371, 1984). […] The homogenate was transferred quantitatively to a microcentrifuge tube with an additional 0.75 mL HTAB in PBS. […]

[1] = target: T7, Hageman factor (Factor XII) (Homo sapiens, UniProt P00748)
T7 sequence (P00748 20-615): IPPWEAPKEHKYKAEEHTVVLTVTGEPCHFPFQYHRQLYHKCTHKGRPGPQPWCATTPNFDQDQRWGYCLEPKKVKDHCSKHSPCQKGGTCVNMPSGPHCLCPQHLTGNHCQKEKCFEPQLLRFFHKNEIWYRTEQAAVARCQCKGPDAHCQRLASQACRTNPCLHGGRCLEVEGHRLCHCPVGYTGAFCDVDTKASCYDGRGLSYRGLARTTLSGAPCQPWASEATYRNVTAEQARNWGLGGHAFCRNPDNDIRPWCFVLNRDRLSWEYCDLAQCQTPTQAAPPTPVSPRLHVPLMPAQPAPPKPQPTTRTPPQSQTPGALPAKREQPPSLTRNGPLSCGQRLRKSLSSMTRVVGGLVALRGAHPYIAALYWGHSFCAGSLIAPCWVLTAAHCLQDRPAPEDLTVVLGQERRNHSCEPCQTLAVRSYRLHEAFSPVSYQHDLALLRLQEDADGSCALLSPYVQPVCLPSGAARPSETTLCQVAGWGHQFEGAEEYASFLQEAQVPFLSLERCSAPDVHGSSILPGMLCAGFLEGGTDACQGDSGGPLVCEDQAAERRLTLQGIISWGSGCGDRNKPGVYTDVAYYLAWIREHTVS
Experimental: Enzymatic assays. […] Pooled human plasma (5 μl) was incubated with 100 μl of SAHA (0.1 to 1000 μg/ml) in 0.05 M HEPES containing Triton X-100 for 5 min at 5° C.
SAGEs were screened for their ability to stimulate intrinsic coagulation (activation of Hageman factor). Pooled human plasma was incubated with heparin or low molecular weight (Lmw) sulfated and fluoroalkylated HAs (Lmw-OSFHA-1, Lmw-OSFHA-2) and amidolytic activity was determined using the substrate D-cyclohydrotyrosyl-Gly-Arg-p-NA.

[2] = system: human neonatal epidermal keratinocytes; test: Keratinocyte proliferation assay; assay type: cell-based; details: high molecular weight derivatives, 100 μg/ml, FIG. 8
Experimental: Fourth, SAGEs are potent inhibitors of the proliferation of human keratinocytes. In these assays human neonatal epidermal keratinocytes were cultured in the presence and absence of SAGEs or other inhibitors, and proliferation was measured by adding a dye that is reduced in direct proportion to the number of viable cells present.

nHEK cells = test: Cytotoxicity (MTS); assay type: cell-based, human; details: up to 10 mg/ml

Substance | P-Selectin/PSGL (P-Selectin/PSGL) | RAGE/Mac-1 (RAGE/Mac-1) | RAGE/CML-BSA (RAGE/CML-BSA) | RAGE/S100B (RAGE/S100B) | RAGE/HMGB1 (RAGE/HMGB1) | Leukocyte Elastase (human leukocyte elastase) | AGE-induced apoptosis (ARPE-19 cells) | up-regulation of RAGE expression (RAGE) | inflammation and MPO activities, SAGE vs. HA (LL-37 injected skin) | Hageman Factor [1] | IC50 (human leukocyte elastase; FIG. 4, read-out: IC50 for HLE) | inhibition of keratinocyte proliferation [2] | toxicity to nHEK cells (nHEK cells)
2-0, 3-0 desulfated heparin [ODSH, reference compound] | 1.1 µg/mL | 0.09 µg/mL | 8.6 µg/mL | 4.2 µg/mL | 0.23 µg/mL | 0.22 µg/mL | Apoptosis is reduced; also recorded: inhibited | prevented up-regulation of RAGE expression |  |  |  |  | 
Hyaluronic Acid [HA, reference compound] |  |  |  |  |  |  |  |  | did not alleviate inflammation |  |  |  | 
P—OSFHA-1(DS 1) [GM-231101] | 12.048 µg/mL |  |  | 14.6 µg/mL |  | 0.185 µg/mL |  |  |  | 400 µg/mL |  |  | 
P—OSFHA-1(DS 2) [GM-231201] | 0.126 µg/mL | 28.4 µg/mL | 2.579 µg/mL | 8.82 µg/mL |  | 0.487 µg/mL |  |  |  | 400 µg/mL |  |  | 
P—OSFHA-2(DS 1) [GM-331101] | 8.958 µg/mL |  |  | 4.557 µg/mL |  | 0.375 µg/mL |  |  |  | 400 µg/mL |  |  | 
P—OSFHA-2(DS 2) [GM-331201] |  |  | 1.682 µg/mL | 2.28 µg/mL |  | 0.353 µg/mL |  |  |  | 40 µg/mL |  |  | 
P—OSMeHA(DS 1) [GM-131101] | 5.61 µg/mL | 0.51 µg/mL | 6.09 µg/mL | 31.069 µg/mL | 2.68 µg/mL | 0.285 µg/mL |  |  |  |  | 3.46 nM | less active | non-toxic
P—OSMeHA(DS 2) [GM-131201] | 0.5 µg/mL | 0.3 µg/mL | 0.044 µg/mL | 0.06 µg/mL |  | 0.42 µg/mL |  |  |  | 0.4 µg/mL |  |  | 
